In assay [1] the target is T1, Mitogen-activated protein kinase 10 (Homo sapiens, UniProt P53779). The settings on record: at 10 µM.
In assay [2] the target is T2, Serine/threonine-protein kinase tousled-like 1 (Homo sapiens) (UniProt Q9UKI8).
T2 sequence (whole entry): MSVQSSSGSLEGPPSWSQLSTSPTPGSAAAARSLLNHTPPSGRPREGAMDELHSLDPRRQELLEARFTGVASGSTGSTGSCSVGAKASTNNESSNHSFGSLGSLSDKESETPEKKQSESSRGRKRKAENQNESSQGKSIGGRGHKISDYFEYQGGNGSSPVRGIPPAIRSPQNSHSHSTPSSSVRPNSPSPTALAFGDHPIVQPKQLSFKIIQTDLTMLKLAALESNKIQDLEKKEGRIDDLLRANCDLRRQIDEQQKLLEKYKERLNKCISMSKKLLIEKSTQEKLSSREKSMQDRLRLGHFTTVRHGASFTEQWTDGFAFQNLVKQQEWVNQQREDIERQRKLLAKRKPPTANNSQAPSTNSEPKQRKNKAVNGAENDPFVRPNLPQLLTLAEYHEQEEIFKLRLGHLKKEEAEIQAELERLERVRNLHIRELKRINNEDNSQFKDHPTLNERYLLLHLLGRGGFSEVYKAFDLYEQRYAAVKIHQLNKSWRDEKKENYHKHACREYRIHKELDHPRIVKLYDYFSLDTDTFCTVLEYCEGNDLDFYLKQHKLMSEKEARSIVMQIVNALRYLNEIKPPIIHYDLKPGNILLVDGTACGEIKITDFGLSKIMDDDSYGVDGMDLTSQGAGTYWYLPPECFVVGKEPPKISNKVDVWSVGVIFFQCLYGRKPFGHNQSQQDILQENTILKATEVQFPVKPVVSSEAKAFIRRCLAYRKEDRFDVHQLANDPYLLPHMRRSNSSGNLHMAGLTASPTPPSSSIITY
The experiment in a line: Selectivity interaction (KinomeScan (DiscoverX)) EUB0000695a TLK1. Conditions: at 100 nM.

Assay [3] addresses Dual specificity tyrosine-phosphorylation-regulated kinase 1A (Homo sapiens, UniProt Q13627). Briefly: Selectivity interaction (Kinase screening (Nanosyn)) EUB0000604a DYRK1A.
Assay [4] concerns the target T3, Ribosomal protein S6 kinase alpha-1 (Homo sapiens, UniProt Q15418). The experiment in a line: Selectivity interaction (KinomeScan (DiscoverX)) EUB0000045b RPS6KA1.
The target of assay [5] is T1, Mitogen-activated protein kinase 10. The experiment in a line: Selectivity interaction (KinomeScan (DiscoverX)) EUB0000666a MAPK10. The settings on record: at 10 µM.
Assay [6] in a line: Selectivity interaction (KinomeScan (DiscoverX)) EUB0000607a CDPK1. The settings on record: at 10 µM.
Assay [7] deals with Aurora kinase B (Homo sapiens, UniProt Q96GD4). The experiment in a line: Selectivity interaction (Kinase panel (Invitrogen)) EUB0000639a AURKB. Conditions: at 200 nM.
Sequence of Aurora kinase B (Q96GD4 whole entry): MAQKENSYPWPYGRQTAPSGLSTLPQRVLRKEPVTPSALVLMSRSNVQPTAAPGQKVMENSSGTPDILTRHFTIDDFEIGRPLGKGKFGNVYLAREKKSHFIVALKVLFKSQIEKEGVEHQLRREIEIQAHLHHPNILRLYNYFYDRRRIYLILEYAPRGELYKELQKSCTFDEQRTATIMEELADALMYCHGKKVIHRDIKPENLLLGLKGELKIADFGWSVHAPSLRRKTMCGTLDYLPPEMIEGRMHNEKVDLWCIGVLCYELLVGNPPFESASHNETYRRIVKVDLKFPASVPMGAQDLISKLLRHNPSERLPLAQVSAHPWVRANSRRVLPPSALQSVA
Assay [8] concerns the target BDNF/NT-3 growth factors receptor (Homo sapiens) (UniProt Q16620). The experiment in a line: Selectivity interaction (KinomeScan (DiscoverX)) EUB0000229b NTRK2. The settings on record: at 10 µM.
The target of assay [9] is T4, Serine/threonine-protein kinase PLK4 (Homo sapiens) (UniProt O00444).
T4 sequence (whole entry): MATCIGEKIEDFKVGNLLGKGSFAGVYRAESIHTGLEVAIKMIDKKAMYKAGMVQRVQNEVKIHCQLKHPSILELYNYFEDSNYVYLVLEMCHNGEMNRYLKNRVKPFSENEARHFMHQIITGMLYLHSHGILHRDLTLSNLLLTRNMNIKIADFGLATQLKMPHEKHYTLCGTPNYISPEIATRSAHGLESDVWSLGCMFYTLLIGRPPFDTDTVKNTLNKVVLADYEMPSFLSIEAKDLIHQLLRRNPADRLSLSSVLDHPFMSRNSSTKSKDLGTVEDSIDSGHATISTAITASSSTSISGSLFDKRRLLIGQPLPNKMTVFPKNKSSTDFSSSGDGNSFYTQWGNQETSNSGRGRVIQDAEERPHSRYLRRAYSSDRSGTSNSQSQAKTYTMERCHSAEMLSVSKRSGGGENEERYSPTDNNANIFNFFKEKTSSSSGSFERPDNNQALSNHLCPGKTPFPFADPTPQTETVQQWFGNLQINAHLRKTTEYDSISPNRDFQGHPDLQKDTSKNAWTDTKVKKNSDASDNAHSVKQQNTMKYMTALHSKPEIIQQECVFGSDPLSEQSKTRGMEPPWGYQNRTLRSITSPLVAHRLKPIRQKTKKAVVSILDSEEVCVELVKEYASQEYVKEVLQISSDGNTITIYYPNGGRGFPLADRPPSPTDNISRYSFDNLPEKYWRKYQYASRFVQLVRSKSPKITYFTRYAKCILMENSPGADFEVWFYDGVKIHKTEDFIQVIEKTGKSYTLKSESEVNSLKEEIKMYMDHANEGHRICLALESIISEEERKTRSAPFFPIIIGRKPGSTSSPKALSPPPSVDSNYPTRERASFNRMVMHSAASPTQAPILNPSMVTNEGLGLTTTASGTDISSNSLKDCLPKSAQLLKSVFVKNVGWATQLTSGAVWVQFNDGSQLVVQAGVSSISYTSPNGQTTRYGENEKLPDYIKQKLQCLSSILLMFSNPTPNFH
Briefly: Selectivity interaction (KinomeScan (DiscoverX)) EUB0000229b PLK4. Conditions: at 10 µM.

Assay [10] deals with T3, Ribosomal protein S6 kinase alpha-1. The experiment in a line: Selectivity interaction (ActivX KiNativ screen (ex vivo kinase selectivity in human PBMCs)) EUB0001619a RPS6KA1. It counts as cell-based. Conditions: PBMC, at 1 µM.
The target of assay [11] is T5, cGMP-dependent protein kinase 1 (Homo sapiens) (UniProt Q13976).
T5 sequence (whole entry): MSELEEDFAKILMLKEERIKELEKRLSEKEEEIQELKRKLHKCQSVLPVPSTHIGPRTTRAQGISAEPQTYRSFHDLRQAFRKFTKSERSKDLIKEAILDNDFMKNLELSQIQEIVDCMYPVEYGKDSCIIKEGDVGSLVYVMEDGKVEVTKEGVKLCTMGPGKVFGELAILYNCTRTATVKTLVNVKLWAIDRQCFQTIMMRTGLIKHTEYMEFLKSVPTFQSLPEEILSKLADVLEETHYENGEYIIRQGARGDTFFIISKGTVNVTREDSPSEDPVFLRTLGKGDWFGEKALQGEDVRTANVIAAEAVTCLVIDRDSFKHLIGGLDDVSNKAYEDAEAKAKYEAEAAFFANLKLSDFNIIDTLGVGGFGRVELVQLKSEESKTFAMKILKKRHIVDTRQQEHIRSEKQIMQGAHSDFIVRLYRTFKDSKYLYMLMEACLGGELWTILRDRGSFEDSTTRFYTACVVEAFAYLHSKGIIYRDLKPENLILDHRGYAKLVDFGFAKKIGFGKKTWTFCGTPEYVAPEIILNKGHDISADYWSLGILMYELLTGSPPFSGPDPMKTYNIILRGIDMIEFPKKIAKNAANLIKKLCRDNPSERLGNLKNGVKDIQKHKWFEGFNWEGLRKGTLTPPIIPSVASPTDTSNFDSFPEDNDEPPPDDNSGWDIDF
The experiment in a line: Selectivity interaction (KinomeScan (DiscoverX)) EUB0000618a PRKG1. The settings on record: at 10 µM.

Structures are written as SMILES.

T3 sequence (Q15418 whole entry): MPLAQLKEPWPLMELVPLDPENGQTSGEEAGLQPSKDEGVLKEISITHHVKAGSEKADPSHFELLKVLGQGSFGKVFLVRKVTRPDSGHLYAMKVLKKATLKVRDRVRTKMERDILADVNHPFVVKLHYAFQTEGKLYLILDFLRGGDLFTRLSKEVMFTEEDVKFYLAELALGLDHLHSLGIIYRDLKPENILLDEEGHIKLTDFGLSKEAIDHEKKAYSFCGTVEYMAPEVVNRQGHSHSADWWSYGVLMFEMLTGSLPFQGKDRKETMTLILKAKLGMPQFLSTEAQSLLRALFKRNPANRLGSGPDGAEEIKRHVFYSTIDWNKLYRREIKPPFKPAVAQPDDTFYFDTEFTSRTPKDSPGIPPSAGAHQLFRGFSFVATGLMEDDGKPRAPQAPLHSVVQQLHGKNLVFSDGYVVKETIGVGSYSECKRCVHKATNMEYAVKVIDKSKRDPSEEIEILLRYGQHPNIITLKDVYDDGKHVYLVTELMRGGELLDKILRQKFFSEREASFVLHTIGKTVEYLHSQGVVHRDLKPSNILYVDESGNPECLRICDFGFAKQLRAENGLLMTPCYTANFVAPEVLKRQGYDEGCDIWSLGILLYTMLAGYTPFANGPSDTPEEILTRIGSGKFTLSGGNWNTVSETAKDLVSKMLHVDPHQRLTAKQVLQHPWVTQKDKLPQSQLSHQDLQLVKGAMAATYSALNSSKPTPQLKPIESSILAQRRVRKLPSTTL
T1 sequence (P53779 whole entry): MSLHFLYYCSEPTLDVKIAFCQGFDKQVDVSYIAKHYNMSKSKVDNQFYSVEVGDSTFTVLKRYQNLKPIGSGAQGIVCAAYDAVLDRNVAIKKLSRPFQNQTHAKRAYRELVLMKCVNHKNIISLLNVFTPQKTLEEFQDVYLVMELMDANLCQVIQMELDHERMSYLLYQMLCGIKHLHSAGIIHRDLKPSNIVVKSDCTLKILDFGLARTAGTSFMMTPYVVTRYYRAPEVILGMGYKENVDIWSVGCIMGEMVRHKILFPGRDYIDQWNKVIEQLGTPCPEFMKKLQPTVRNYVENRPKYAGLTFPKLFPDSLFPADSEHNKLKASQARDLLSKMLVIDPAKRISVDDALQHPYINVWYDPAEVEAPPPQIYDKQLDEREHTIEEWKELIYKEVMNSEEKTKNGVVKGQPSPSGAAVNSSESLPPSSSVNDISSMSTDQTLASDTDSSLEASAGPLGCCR
Sequence of BDNF/NT-3 growth factors receptor (Homo sapiens) (Q16620 32-822 limits assumed): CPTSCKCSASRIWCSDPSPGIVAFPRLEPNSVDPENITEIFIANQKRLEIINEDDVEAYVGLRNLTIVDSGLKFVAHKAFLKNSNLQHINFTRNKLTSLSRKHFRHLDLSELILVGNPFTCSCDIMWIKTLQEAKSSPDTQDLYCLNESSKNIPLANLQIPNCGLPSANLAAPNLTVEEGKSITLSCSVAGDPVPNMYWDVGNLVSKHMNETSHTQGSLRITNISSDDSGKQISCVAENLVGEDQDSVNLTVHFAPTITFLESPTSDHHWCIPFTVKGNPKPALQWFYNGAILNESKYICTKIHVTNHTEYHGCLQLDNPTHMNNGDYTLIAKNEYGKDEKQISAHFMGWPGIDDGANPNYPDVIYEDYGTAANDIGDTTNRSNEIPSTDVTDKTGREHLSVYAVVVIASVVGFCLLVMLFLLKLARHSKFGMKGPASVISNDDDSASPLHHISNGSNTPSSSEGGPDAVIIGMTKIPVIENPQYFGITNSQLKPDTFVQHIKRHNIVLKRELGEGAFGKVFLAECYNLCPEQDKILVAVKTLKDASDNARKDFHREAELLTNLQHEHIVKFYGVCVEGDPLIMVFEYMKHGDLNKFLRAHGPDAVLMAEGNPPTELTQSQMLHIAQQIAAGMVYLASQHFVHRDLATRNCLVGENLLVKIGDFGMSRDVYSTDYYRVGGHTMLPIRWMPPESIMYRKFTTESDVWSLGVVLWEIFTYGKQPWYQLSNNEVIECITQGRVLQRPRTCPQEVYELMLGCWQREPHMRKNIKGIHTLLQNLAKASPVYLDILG

In turn, `Cc1cc([C@@H](C)Nc2ccccc2C(=O)O)c2nc(N3CCOCC3)cc(=O)n2c1` [AZD-6482] returned a % of control in assay [1] of 82%.
Regarding `Cc1cc(F)c(C(=O)Nc2cccc(-c3nncn3C(C)C)n2)cc1-n1cnc(C2CC2)c1`, the % of control in assay [2] stood at 88%.
Molecule `Cc1cnc(Nc2ccc(F)cc2Cl)nc1-c1c[nH]c(C(=O)N[C@H](CO)c2cccc(Cl)c2)c1` showed a % of inhibition in [3] of 3%.
Turning to `C=CC(=O)Nc1cc(-n2c(=O)ccc3cnc4ccc(-c5ccc(NS(C)(=O)=O)cc5)cc4c32)ccc1C`, the % of control in assay [4] (at 1 µM) turned out to be 76%; in assay [4] (at 10 µM), 67%.
Turning to `O=C(NOC[C@H](O)CO)c1ccc(F)c(F)c1Nc1ccc(I)cc1F`, in assay [5], the % of control was 90%.
With `CNC(=O)Nc1ccc(-c2nc(N3CC4CCC(C3)O4)c3cnn(C4CCC5(CC4)OCCO5)c3n2)cc1`, the % of control in assay [6] was 86%.
Turning to `CC[C@@H]1[C@H](F)C(=O)N[C@@H]1COc1nccc2cc(C(N)=O)c(OC)cc12` [ZIMLOVISERTIB], in assay [7], the % of inhibition was found to be 11.3%.
For `COc1cc(N(C)c2ccnc3ccc(C(F)(F)F)cc23)cc(OC)c1OC`, the results for the % binding in assay [8] and in assay [9] were 100% and 99%, respectively.
With `N#Cc1cccc(-c2c[nH]c3ncnc(N4CCOCC4)c23)c1`, the % of inhibition in assay [10] is 33%.
As to `O[C@H]1CC[C@H](Nc2ncc3nc(Nc4c(F)cc(F)cc4F)n([C@H]4CCOC4)c3n2)CC1`, in assay [11], the % of control was found to be 100%.
